Data as given in publication PMC5238498, “Bivalent IAP antagonists, but not monovalent IAP antagonists, inhibit TNF-mediated NF-κB signaling by degrading TRAF2-associated cIAP1 in cancer cells” (Cell Death Discovery, 2017).
pKi: −log10 of the molar value.

Target: T1, cIAP1 BIR3 domain (Homo sapiens, UniProt Q13490)
T1 construct: gene BIRC2; isolated purified BIR3 domain
Experiment: fluorescence polarization assay
Conditions: read-out: cIAP1 BIR3 binding (Ki, nmol/l)
Source text: fluorescence polarization assay on cIAP1 BIR3 domain

T1 sequence (Q13490 260-352 limits assumed): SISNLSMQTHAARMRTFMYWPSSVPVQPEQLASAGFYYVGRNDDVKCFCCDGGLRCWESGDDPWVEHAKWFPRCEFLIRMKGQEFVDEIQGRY

pKi, ~9.00:
CN[C@@H](C)C(=O)N[C@H](C(=O)N1C[C@@H](O)C[C@H]1Cc1c(-c2[nH]c3cc(F)ccc3c2C[C@@H]2C[C@H](O)CN2C(=O)[C@@H](NC(=O)[C@H](C)NC)[C@@H](C)OC)[nH]c2cc(F)ccc12)[C@@H](C)OC [B2]
CN[C@@H](C)C(=O)N[C@H](C(=O)N1C[C@@H](O)C[C@H]1Cc1c(-c2[nH]c3cc(F)ccc3c2C[C@@H]2C[C@H](O)CN2C(=O)[C@@H](NC(=O)[C@H](C)NC)C(C)(C)C)[nH]c2cc(F)ccc12)C(C)(C)C [B3]
CC[C@H](NC(=O)[C@H](C)NC)C(=O)N1C[C@@H](O)C[C@H]1Cc1c[nH]c2cc(F)ccc12 [M1]
CN[C@@H](C)C(=O)N[C@H](C(=O)N1C[C@@H](O)C[C@H]1Cc1c[nH]c2cc(F)ccc12)[C@@H](C)OC [M2]
CN[C@@H](C)C(=O)N[C@H](C(=O)N1C[C@@H](O)C[C@H]1Cc1c[nH]c2cc(F)ccc12)C(C)(C)C [M3]
